Source: the CheMixHub viscosity set
± gives the uncertainty stated by the source.

Assay: xn = mol fraction of the nth substance listed

c1ccccc1 + CCO
Conditions | viscosity [mPa·s]
293.15 K, 101 kPa, x1 = 0.16 | 1.017 ± 0.027
293.15 K, 101 kPa, x1 = 0.37 | 0.81 ± 0.021
293.15 K, 101 kPa, x1 = 0.64 | 0.657 ± 0.017
298.15 K, 101 kPa, x1 = 0.1259 | 0.916 ± 0.009
298.15 K, 101 kPa, x1 = 0.16 | 0.926 ± 0.025
298.15 K, 101 kPa, x1 = 0.2547 | 0.805 ± 0.008
298.15 K, 101 kPa, x1 = 0.37 | 0.759 ± 0.02
298.15 K, 101 kPa, x1 = 0.4079 | 0.708 ± 0.007
298.15 K, 101 kPa, x1 = 0.554 | 0.643 ± 0.007
298.15 K, 101 kPa, x1 = 0.64 | 0.624 ± 0.017
298.15 K, 101 kPa, x1 = 0.676 | 0.611 ± 0.006
298.15 K, 101 kPa, x1 = 0.779 | 0.583 ± 0.006
298.15 K, 101 kPa, x1 = 0.842 | 0.584 ± 0.006
298.15 K, 101 kPa, x1 = 0.91 | 0.587 ± 0.006
298.15 K, 101.33 kPa, x1 = 0.0518 | 1.013 ± 0.008
298.15 K, 101.33 kPa, x1 = 0.1059 | 0.959 ± 0.006
298.15 K, 101.33 kPa, x1 = 0.1078 | 0.955 ± 0.008
298.15 K, 101.33 kPa, x1 = 0.1897 | 0.88 ± 0.006
298.15 K, 101.33 kPa, x1 = 0.1934 | 0.884 ± 0.007
298.15 K, 101.33 kPa, x1 = 0.2966 | 0.794 ± 0.005
298.15 K, 101.33 kPa, x1 = 0.3308 | 0.776 ± 0.007
298.15 K, 101.33 kPa, x1 = 0.3795 | 0.728 ± 0.006
298.15 K, 101.33 kPa, x1 = 0.3983 | 0.731 ± 0.005
298.15 K, 101.33 kPa, x1 = 0.4887 | 0.681 ± 0.005
298.15 K, 101.33 kPa, x1 = 0.5514 | 0.651 ± 0.006
298.15 K, 101.33 kPa, x1 = 0.5729 | 0.647 ± 0.006
298.15 K, 101.33 kPa, x1 = 0.5993 | 0.638 ± 0.004
298.15 K, 101.33 kPa, x1 = 0.6579 | 0.607 ± 0.005
298.15 K, 101.33 kPa, x1 = 0.6973 | 0.61 ± 0.004
298.15 K, 101.33 kPa, x1 = 0.7073 | 0.588 ± 0.005
298.15 K, 101.33 kPa, x1 = 0.7987 | 0.59 ± 0.004
298.15 K, 101.33 kPa, x1 = 0.8126 | 0.567 ± 0.005
298.15 K, 101.33 kPa, x1 = 0.8995 | 0.582 ± 0.004
298.15 K, 101.33 kPa, x2 = 0.0192 | 0.567 ± 0.005
298.15 K, 101.33 kPa, x2 = 0.113 | 0.645 ± 0.0052
298.15 K, 101.33 kPa, x2 = 0.2 | 0.597 ± 0.012
298.15 K, 101.33 kPa, x2 = 0.306 | 0.642 ± 0.0051
298.15 K, 101.33 kPa, x2 = 0.5 | 0.712 ± 0.0057
298.15 K, 101.33 kPa, x2 = 0.692 | 0.816 ± 0.0065
298.15 K, 101.33 kPa, x2 = 0.892 | 0.977 ± 0.0078
298.16 K, 101 kPa, x2 = 0.1 | 0.583 ± 0.005
298.16 K, 101 kPa, x2 = 0.2 | 0.587 ± 0.005
298.16 K, 101 kPa, x2 = 0.3 | 0.605 ± 0.005
298.16 K, 101 kPa, x2 = 0.4 | 0.635 ± 0.005
298.16 K, 101 kPa, x2 = 0.5 | 0.675 ± 0.006
298.16 K, 101 kPa, x2 = 0.6 | 0.723 ± 0.006
298.16 K, 101 kPa, x2 = 0.7 | 0.782 ± 0.007
298.16 K, 101 kPa, x2 = 0.8 | 0.861 ± 0.007
298.16 K, 101 kPa, x2 = 0.9 | 0.959 ± 0.008
303 K, 100 kPa, x2 = 0.4 | 0.596 ± 0.005
303.15 K, 101 kPa, x1 = 0.1259 | 0.841 ± 0.009
303.15 K, 101 kPa, x1 = 0.16 | 0.839 ± 0.022
303.15 K, 101 kPa, x1 = 0.2547 | 0.737 ± 0.008
303.15 K, 101 kPa, x1 = 0.37 | 0.681 ± 0.018
303.15 K, 101 kPa, x1 = 0.4079 | 0.65 ± 0.007
303.15 K, 101 kPa, x1 = 0.554 | 0.593 ± 0.006
303.15 K, 101 kPa, x1 = 0.64 | 0.571 ± 0.015
303.15 K, 101 kPa, x1 = 0.676 | 0.564 ± 0.006
303.15 K, 101 kPa, x1 = 0.779 | 0.544 ± 0.006
303.15 K, 101 kPa, x1 = 0.842 | 0.546 ± 0.006
303.15 K, 101 kPa, x1 = 0.91 | 0.547 ± 0.006
308 K, 100 kPa, x2 = 0.4 | 0.551 ± 0.004
308.15 K, 101 kPa, x1 = 0.1259 | 0.769 ± 0.008
308.15 K, 101 kPa, x1 = 0.16 | 0.772 ± 0.021
308.15 K, 101 kPa, x1 = 0.2547 | 0.675 ± 0.007
308.15 K, 101 kPa, x1 = 0.37 | 0.623 ± 0.017
308.15 K, 101 kPa, x1 = 0.4079 | 0.598 ± 0.006
308.15 K, 101 kPa, x1 = 0.554 | 0.548 ± 0.006
308.15 K, 101 kPa, x1 = 0.64 | 0.538 ± 0.014
308.15 K, 101 kPa, x1 = 0.676 | 0.526 ± 0.006
308.15 K, 101 kPa, x1 = 0.779 | 0.511 ± 0.005
308.15 K, 101 kPa, x1 = 0.842 | 0.511 ± 0.005
308.15 K, 101 kPa, x1 = 0.91 | 0.51 ± 0.005
313 K, 100 kPa, x2 = 0.4 | 0.528 ± 0.004
313.15 K, 101 kPa, x1 = 0.1259 | 0.705 ± 0.007
313.15 K, 101 kPa, x1 = 0.16 | 0.699 ± 0.019
313.15 K, 101 kPa, x1 = 0.2547 | 0.622 ± 0.007
313.15 K, 101 kPa, x1 = 0.37 | 0.567 ± 0.015
313.15 K, 101 kPa, x1 = 0.4079 | 0.553 ± 0.006
313.15 K, 101 kPa, x1 = 0.5 | 0.5326 ± 0.0079
313.15 K, 101 kPa, x1 = 0.554 | 0.51 ± 0.005
313.15 K, 101 kPa, x1 = 0.64 | 0.5 ± 0.013
313.15 K, 101 kPa, x1 = 0.676 | 0.488 ± 0.005
313.15 K, 101 kPa, x1 = 0.7 | 0.4812 ± 0.0072
313.15 K, 101 kPa, x1 = 0.779 | 0.478 ± 0.005
313.15 K, 101 kPa, x1 = 0.842 | 0.481 ± 0.005
313.15 K, 101 kPa, x1 = 0.91 | 0.479 ± 0.005
313.15 K, 101.33 kPa, x2 = 0.113 | 0.525 ± 0.0042
313.15 K, 101.33 kPa, x2 = 0.306 | 0.515 ± 0.0041
313.15 K, 101.33 kPa, x2 = 0.5 | 0.555 ± 0.0044
313.15 K, 101.33 kPa, x2 = 0.692 | 0.629 ± 0.005
313.15 K, 101.33 kPa, x2 = 0.892 | 0.748 ± 0.006
318 K, 100 kPa, x2 = 0.4 | 0.477 ± 0.004
318.15 K, 101 kPa, x1 = 0.1259 | 0.646 ± 0.007
318.15 K, 101 kPa, x1 = 0.2547 | 0.573 ± 0.006
318.15 K, 101 kPa, x1 = 0.4079 | 0.514 ± 0.005
318.15 K, 101 kPa, x1 = 0.554 | 0.475 ± 0.005
318.15 K, 101 kPa, x1 = 0.676 | 0.458 ± 0.005
318.15 K, 101 kPa, x1 = 0.779 | 0.447 ± 0.005
318.15 K, 101 kPa, x1 = 0.842 | 0.451 ± 0.005
318.15 K, 101 kPa, x1 = 0.91 | 0.451 ± 0.005
323.15 K, 101.33 kPa, x2 = 0.2 | 0.424 ± 0.0085
